This note sets out measurements from patent EP0075167B1 (priority 1981, dated 1983).

Like-named read-outs stand apart in the source and are kept apart here.

Experiment [1] has as its system Phytophthora infestans. Type of experiment: in vivo. The settings on record: protective; young tomato plants sprayed to dripping wet, then inoculated with spore suspension; 100% rel. humidity, ca. 20°C; evaluated 3 days after inoculation; compared with prior-art comparison substances.
The subject of experiment [2] is Phytophthora infestans. Type of experiment: in vivo. The settings on record: systemic; preparation poured onto standard soil of young tomato plants; inoculated 3 days after treatment; 100% rel. humidity, ca. 20°C; evaluated 3 days after inoculation; compared with prior-art comparison substances.

As to `C=C(C)N(C(=O)COC)c1c(C)cccc1C` [Beispiel 1, N-Me-^1 thoxyacetyl-N-(1-methylvinyl)-2,6-dimethylanilin], the Wirksamkeit entry in the experiment on Phytophthora infestans [1] and in the experiment with Phytophthora infestans [2] was “deutliche Überlegenheit in der Wirksamkeit gegenüber dem Stand der Technik” in each case.

On to `C=C(C)N(C(=O)Cn1cncn1)c1c(C)cccc1C` [Beispiel 8, N-(1-Methylvinyl)-N-(1,2,4-triazol-1-yl-acetyl)-2,6-dimethylanilin], for which the Wirksamkeit entry in the experiment with Phytophthora infestans [1] is recorded as “deutliche Überlegenheit in der Wirksamkeit gegenüber dem Stand der Technik”.

In the case of `C#CCOCC(=O)N(C=C)c1c(C)cccc1C` [Beispiel 9, N-Propargyloxyacetyl-N-vinyl-2,6-dimethylanilin], in the experiment on Phytophthora infestans [2], the Wirksamkeit entry is on record as “deutliche Überlegenheit in der Wirksamkeit gegenüber dem Stand der Technik”.
